Results as given in US20160046618A1, “Cyclopropyl Fused Thiazin-2-Amine Compounds as Beta-Secretase Inhibitors and Methods of Use” (AMGEN INC., priority 2014, published 2016).
Blank lines part the entries; values can stand above or below the molecule they belong to.

Columns and labels:
Recombinant Cat D = Recombinant Cat D (Homo sapiens (Human), UniProt P07339); assay: In vitro enzymatic Cathepsin D (Cat D) FRET assay; assay type: biochemical; conditions: read-out: IC50 IP (μM) CatD
In short: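 Fluorescence at 500 nm excitation and 580 nm emission reports cleavage of a quenched fluorophore–quencher peptide (20 nM) by CHO-expressed Cat D. Reactions ran one hour in 0.05 M citrate pH 3.5, 5 mM CHAPS, 10% DMSO final before a Tris stop raised pH to neutrality.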

[1] = test system: Aβ40 in conditioned medium of cells stably expressing Amyloid Precursor Protein (APP); assay: In vitro BACE-1 cell-based assay (Aβ40 sandwich ELISA); conditions: read-out: IC50 IP (μM) BACE1 cell
In short: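 APP-stable cells, pre-cultured 24 h at 37° C in DMEM/10% FBS, were treated 24 h with compound in a 10-point series starting at 100 μM or 10 μM (0.1% DMSO final). Secreted Aβ40 in conditioned medium was measured by pAb40/biotin-6E10 sandwich ELISA with Europium time-resolved fluorescence; IC50 from percent inhibition versus concentration.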

human recombinant BACE1 = human recombinant BACE1 (Homo sapiens (Human), UniProt P56817); assay: In vitro enzymatic BACE1 FRET assay; assay type: biochemical; conditions: read-out: IC50 IP (μM) BACE1 enzyme
In short: (§1)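 Ni-NTA-purified recombinant enzyme incubated 1 h with 50 nM FRET peptide substrate (fluorophore and quencher flanking the BACE cleavage site). Reaction stopped with Tris buffer raising pH to neutrality; cleavage-released fluorescence read at ex 488/em 590 nm.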

human recombinant BACE2 = human recombinant BACE2 (Homo sapiens (Human), UniProt Q9Y5Z0); assay: In vitro enzymatic BACE2 FRET assay; assay type: biochemical; conditions: read-out: IC50 IP (μM) BACE2 enzyme
In short: as §1

Sequence of human recombinant BACE1 (P56817 46-501): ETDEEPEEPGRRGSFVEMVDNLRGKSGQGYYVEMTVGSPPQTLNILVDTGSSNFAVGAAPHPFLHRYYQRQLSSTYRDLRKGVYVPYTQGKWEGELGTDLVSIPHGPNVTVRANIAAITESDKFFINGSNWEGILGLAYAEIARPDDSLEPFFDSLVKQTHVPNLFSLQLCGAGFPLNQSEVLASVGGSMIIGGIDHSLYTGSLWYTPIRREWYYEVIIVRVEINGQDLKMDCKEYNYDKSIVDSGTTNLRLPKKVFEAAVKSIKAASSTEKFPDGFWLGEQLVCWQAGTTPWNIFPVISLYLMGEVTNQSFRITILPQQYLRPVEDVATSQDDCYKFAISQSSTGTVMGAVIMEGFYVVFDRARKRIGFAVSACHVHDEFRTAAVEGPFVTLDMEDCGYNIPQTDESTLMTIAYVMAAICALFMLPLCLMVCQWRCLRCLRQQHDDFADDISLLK
Sequence of human recombinant BACE2 (Q9Y5Z0 63-518): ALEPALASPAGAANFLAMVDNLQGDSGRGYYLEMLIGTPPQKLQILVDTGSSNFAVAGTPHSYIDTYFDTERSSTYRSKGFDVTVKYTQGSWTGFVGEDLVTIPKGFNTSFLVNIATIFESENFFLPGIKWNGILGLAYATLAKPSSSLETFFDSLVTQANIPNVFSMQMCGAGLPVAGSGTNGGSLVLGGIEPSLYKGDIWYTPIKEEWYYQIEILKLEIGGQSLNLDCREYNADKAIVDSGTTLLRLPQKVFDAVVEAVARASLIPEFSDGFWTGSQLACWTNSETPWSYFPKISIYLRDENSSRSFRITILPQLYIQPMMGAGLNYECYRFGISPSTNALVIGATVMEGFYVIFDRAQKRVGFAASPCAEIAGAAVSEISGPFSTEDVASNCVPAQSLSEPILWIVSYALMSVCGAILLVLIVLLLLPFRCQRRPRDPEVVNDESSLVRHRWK
Sequence of Recombinant Cat D (P07339 65-412): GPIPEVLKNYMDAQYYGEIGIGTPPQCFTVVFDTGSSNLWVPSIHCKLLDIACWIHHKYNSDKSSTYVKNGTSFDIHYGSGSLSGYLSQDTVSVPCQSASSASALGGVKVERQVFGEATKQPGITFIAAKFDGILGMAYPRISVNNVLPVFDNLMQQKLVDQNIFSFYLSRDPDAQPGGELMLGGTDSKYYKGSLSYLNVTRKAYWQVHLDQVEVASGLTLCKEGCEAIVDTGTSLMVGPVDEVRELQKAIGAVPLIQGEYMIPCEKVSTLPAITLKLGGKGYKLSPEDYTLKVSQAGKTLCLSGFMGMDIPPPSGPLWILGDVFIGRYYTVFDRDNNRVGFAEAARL

Compound: COC[C@]12C[C@H]1[C@@](C)(c1cc(NC(=O)c3cnc(OCc4cc(C)no4)cn3)cc(F)c1F)N=C(N)S2 [Example 1031, N-(3-((1S,5S,6S)-3-amino-1-(methoxymethyl)-5-methyl-2-thia-4-azabicyclo[4.1.0]hept-3-en-5-yl)-4,5-difluorophenyl)-5-((3-methyl-5-isoxazolyl)methoxy)-2-pyrazinecarboxamide]
- IC50 (Recombinant Cat D): 775 µM
- IC50 [1]: 0.152 µM
- IC50 (human recombinant BACE1): 0.00107 µM
- IC50 (human recombinant BACE2): 0.0897 µM

Compound: COC[C@]12C[C@H]1[C@@](C)(c1cc(NC(=O)c3cnc(OCc4cc(C)on4)cn3)cc(F)c1F)N=C(N)S2 [Example 1032, N-(3-((1S,5S,6S)-3-amino-1-(methoxymethyl)-5-methyl-2-thia-4-azabicyclo[4.1.0]hept-3-en-5-yl)-4,5-difluorophenyl)-5-((5-methyl-3-isoxazolyl)methoxy)-2-pyrazinecarboxamide]
- IC50 (Recombinant Cat D): 1020 µM
- IC50 [1]: 0.0323 µM
- IC50 (human recombinant BACE1): 0.00106 µM
- IC50 (human recombinant BACE2): 0.0465 µM

Compound: COC[C@]12C[C@H]1[C@@](C)(c1cc(NC(=O)c3cnc(OCc4nccs4)cn3)cc(F)c1F)N=C(N)S2 [Example 1034, N-(3-((1S,5S,6S)-3-amino-1-(methoxymethyl)-5-methyl-2-thia-4-azabicyclo[4.1.0]hept-3-en-5-yl)-4,5-difluorophenyl)-5-(1,3-thiazol-2-ylmethoxy)-2-pyrazinecarboxamide]
- IC50 (Recombinant Cat D): 1400 µM
- IC50 [1]: 0.0109 µM
- IC50 (human recombinant BACE1): 0.0014 µM
- IC50 (human recombinant BACE2): 0.0118 µM

Compound: C[C@]1(c2cc(NC(=O)c3cnc(OCC(F)(F)F)cn3)ccc2F)N=C(N)S[C@@]2(C(=O)NCCF)C[C@H]21 [Example 1040, (1S,5S,6S)-3-amino-5-(2-fluoro-5-(5-(2,2,2-trifluoroethoxy)pyrazine-2-carboxamido)phenyl)-N-(2-fluoroethyl)-5-methyl-2-thia-4-azabicyclo[4.1.0]hept-3-ene-1-carboxamide]
- IC50 (Recombinant Cat D): 212 µM
- IC50 [1]: 0.00284 µM
- IC50 (human recombinant BACE1): 0.000426 µM
- IC50 (human recombinant BACE2): 0.0555 µM

Compound: CC1(NC(=O)[C@]23C[C@H]2[C@@](C)(c2cc(NC(=O)c4cnc(OCC(F)(F)F)cn4)ccc2F)N=C(N)S3)CC1 [Example 1041, (1S,5S,6S)-3-amino-5-(2-fluoro-5-(5-(2,2,2-trifluoroethoxy)pyrazine-2-carboxamido)phenyl)-5-methyl-N-(1-methylcyclopropyl)-2-thia-4-azabicyclo[4.1.0]hept-3-ene-1-carboxamide]
- IC50 (Recombinant Cat D): 324 µM
- IC50 [1]: 0.00692 µM
- IC50 (human recombinant BACE1): 0.00176 µM
- IC50 (human recombinant BACE2): 0.222 µM

Compound: C#CCOc1cnc(C(=O)Nc2cc(F)c(F)c([C@@]3(C)N=C(N)S[C@@]4(CNC(C)=O)C[C@H]43)c2)cn1 [Example 1042, N-(3-((1S,5S,6S)-1-(acetamidomethyl)-3-amino-5-methyl-2-thia-4-azabicyclo[4.1.0]hept-3-en-5-yl)-4,5-difluorophenyl)-5-(prop-2-yn-1-yloxy)pyrazine-2-carboxamide]
- IC50 (Recombinant Cat D): 55.6 µM
- IC50 [1]: 0.00621 µM
- IC50 (human recombinant BACE1): 0.000317 µM
- IC50 (human recombinant BACE2): 0.0159 µM

Compound: C#CCOc1cnc(C(=O)Nc2cc(C)c(F)c([C@@]3(C)N=C(N)S[C@@]4(COC)C[C@H]43)c2)cn1 [Example 1043, N-(3-((1S,5S,6S)-3-amino-1-(methoxymethyl)-5-methyl-2-thia-4-azabicyclo[4.1.0]hept-3-en-5-yl)-4-fluoro-5-methylphenyl)-5-(2-propyn-1-yloxy)-2-pyrazinecarboxamide]
- IC50 (Recombinant Cat D): 196 µM
- IC50 [1]: 0.0138 µM
- IC50 (human recombinant BACE1): 0.000352 µM
- IC50 (human recombinant BACE2): 0.00931 µM

Compound: C#CCOc1cnc(C(=O)Nc2cc(F)c(F)c([C@@]3(C)N=C(N)S[C@@]4(COCC)C[C@H]43)c2)cn1 [Example 1046, N-(3-((1S,5S,6S)-3-amino-1-(ethoxymethyl)-5-methyl-2-thia-4-azabicyclo[4.1.0]hept-3-en-5-yl)-4,5-difluorophenyl)-5-(2-propyn-1-yloxy)-2-pyrazinecarboxamide]
- IC50 (Recombinant Cat D): 43.5 µM
- IC50 [1]: 0.0162 µM
- IC50 (human recombinant BACE1): 0.00037 µM
- IC50 (human recombinant BACE2): 0.0307 µM

The remaining molecules from weak to strong by IC50 (Recombinant Cat D), led by results:

- IC50 (Recombinant Cat D): 1210 µM
- IC50 [1]: 0.022 µM
- IC50 (human recombinant BACE1): 0.00258 µM
- IC50 (human recombinant BACE2): 0.1 µM
Compound: COC[C@]12C[C@H]1[C@@](C)(c1cc(NC(=O)c3cnc(OCC4CC4(F)F)cn3)cc(F)c1F)N=C(N)S2 (stereo partly drawn) [Example 1035, N-(3-((1S,5S,6S)-3-amino-1-(methoxymethyl)-5-methyl-2-thia-4-azabicyclo[4.1.0]hept-3-en-5-yl)-4,5-difluorophenyl)-5-((2,2-difluorocyclopropyl)methoxy)pyrazine-2-carboxamide]

- IC50 (Recombinant Cat D): 1140 µM
- IC50 [1]: 0.0541 µM
- IC50 (human recombinant BACE1): 0.00741 µM
- IC50 (human recombinant BACE2): 0.459 µM
Compound: COC[C@]12C[C@H]1[C@@](C)(c1cc(NC(=O)c3cnc(OCC4CCO4)cn3)cc(F)c1F)N=C(N)S2 (stereo partly drawn) [Example 1029, N-(3-((1S,5S,6S)-3-amino-1-(methoxymethyl)-5-methyl-2-thia-4-azabicyclo[4.1.0]hept-3-en-5-yl)-4,5-difluorophenyl)-5-(oxetan-2-ylmethoxy)pyrazine-2-carboxamide]

- IC50 (Recombinant Cat D): 785 µM
- IC50 [1]: 0.0467 µM
- IC50 (human recombinant BACE1): 0.000803 µM
- IC50 (human recombinant BACE2): 0.128 µM
Compound: COC[C@]12C[C@H]1[C@@](C)(c1cc(NC(=O)c3cnc(OCc4nnc(C)o4)cn3)cc(F)c1F)N=C(N)S2 [Example 1037, N-(3-((1S,5S,6S)-3-amino-1-(methoxymethyl)-5-methyl-2-thia-4-azabicyclo[4.1.0]hept-3-en-5-yl)-4,5-difluorophenyl)-5-((5-methyl-1,3,4-oxadiazol-2-yl)methoxy)-2-pyrazinecarboxamide]

- IC50 (Recombinant Cat D): 291 µM
- IC50 [1]: 0.017 µM
- IC50 (human recombinant BACE1): 0.001 µM
- IC50 (human recombinant BACE2): 0.0987 µM
Compound: COC[C@]12C[C@H]1[C@@](C)(c1cc(NC(=O)c3cnc(OCc4nc(C)no4)cn3)cc(C)c1F)N=C(N)S2 [Example 1044, N-(3-((1S,5S,6S)-3-amino-1-(methoxymethyl)-5-methyl-2-thia-4-azabicyclo[4.1.0]hept-3-en-5-yl)-4-fluoro-5-methylphenyl)-5-((3-methyl-1,2,4-oxadiazol-5-yl)methoxy)-2-pyrazinecarboxamide]

- IC50 (Recombinant Cat D): 243 µM
- IC50 [1]: 0.0414 µM
- IC50 (human recombinant BACE1): 0.00213 µM
- IC50 (human recombinant BACE2): 0.072 µM
Compound: C=C(C)COc1cnc(C(=O)Nc2cc(F)c(F)c([C@@]3(C)N=C(N)S[C@@]4(COC)C[C@H]43)c2)cn1 [Example 1030, N-(3-((1S,5S,6S)-3-amino-1-(methoxymethyl)-5-methyl-2-thia-4-azabicyclo[4.1.0]hept-3-en-5-yl)-4,5-difluorophenyl)-5-((2-methyl-2-propen-1-yl)oxy)-2-pyrazinecarboxamide]

- IC50 (Recombinant Cat D): 230 µM
- IC50 [1]: 0.101 µM
- IC50 (human recombinant BACE1): 0.00105 µM
- IC50 (human recombinant BACE2): 0.0323 µM
Compound: COC[C@]12C[C@H]1[C@@](C)(c1cc(NC(=O)c3cnc(OCc4ccccc4)cn3)cc(F)c1F)N=C(N)S2 [Example 1033, N-(3-((1S,5S,6S)-3-amino-1-(methoxymethyl)-5-methyl-2-thia-4-azabicyclo[4.1.0]hept-3-en-5-yl)-4,5-difluorophenyl)-5-(benzyloxy)-2-pyrazinecarboxamide]

- IC50 (Recombinant Cat D): 194 µM
- IC50 [1]: 0.0738 µM
- IC50 (human recombinant BACE1): 0.00181 µM
- IC50 (human recombinant BACE2): 0.288 µM
Compound: CC(NC(=O)[C@]12C[C@H]1[C@@](C)(c1cc(NC(=O)c3cnc(OCC(F)(F)F)cn3)ccc1F)N=C(N)S2)C(F)F (stereo partly drawn) [Example 1045, (1S,5S,6S)-3-amino-N-(1,1-difluoropropan-2-yl)-5-(2-fluoro-5-(5-(2,2,2-trifluoroethoxy)pyrazine-2-carboxamido)phenyl)-5-methyl-2-thia-4-azabicyclo[4.1.0]hept-3-ene-1-carboxamide]
